Source: patent publication US10004701B2, “Methods and compositions for treating infection” (UNIVERSITY OF ROCHESTER, priority 2012, dated 2018)
Structures can show the parent of a compound that is named as a salt. Where two headings read alike, the source gives them in different places.

Key:
Experiment in all cases: AK assay 384-well format, Prestwick library screening
[1] = system: E. faecium; assay type: cell-based, Enterococcus faecium; settings: for fold induction at 50 µM: Enterococcus faecium, 3 h
[2] = system: S. aureus strain USA300-0114; assay type: cell-based, Staphylococcus aureus; settings: for fold induction at 50 µM: Staphylococcus aureus, USA300, 3 h
[3] = system: K. pneumoniae; assay type: cell-based, Klebsiella pneumoniae; settings: for fold induction at 50 µM: Klebsiella pneumoniae, 3 h
[4] = system: A. baumannii strain 98-37-09; assay type: cell-based, Acinetobacter baumannii; settings: for fold induction at 50 µM: Acinetobacter baumannii, 983709, 3 h
[5] = system: P. aeruginosa; assay type: cell-based, Pseudomonas aeruginosa; settings: for fold induction at 50 µM: Pseudomonas aeruginosa, 3 h
[6] = system: E. cloacae; assay type: cell-based, Enterobacter cloacae; settings: for fold induction at 50 µM: Enterobacter cloacae, 3 h
[7] = system: E. coli; assay type: cell-based, Escherichia coli; settings: for fold induction at 50 µM: Escherichia coli, 3 h
[8] = planktonic E. faecium, 50 μM final drug concentration, 384-well, cutoff for positive-scoring molecules 3-fold increase, read-out: AK-based Prestwick Library Screening Results: E. faecium (increase in extracellular AK activity)
[9] = planktonic S. aureus, 50 μM final drug concentration, 384-well, cutoff for positive-scoring molecules 3-fold increase, read-out: AK-based Prestwick Library Screening Results: S. aureus (increase in extracellular AK activity)
[10] = planktonic K. pneumoniae, 50 μM final drug concentration, 384-well, cutoff for positive-scoring molecules 3-fold increase, read-out: AK-based Prestwick Library Screening Results: K. pneumoniae (increase in extracellular AK activity)
[11] = planktonic A. baumannii, 50 μM final drug concentration, 384-well, cutoff for positive-scoring molecules 3-fold increase, read-out: AK-based Prestwick Library Screening Results: A. baumannii (increase in extracellular AK activity)
[12] = planktonic P. aeruginosa, 50 μM final drug concentration, 384-well, cutoff for positive-scoring molecules 3-fold increase, read-out: AK-based Prestwick Library Screening Results: P. aeruginosa (increase in extracellular AK activity)
[13] = planktonic E. cloacae, 50 μM final drug concentration, 384-well, cutoff for positive-scoring molecules 3-fold increase, read-out: AK-based Prestwick Library Screening Results: E. cloacae (increase in extracellular AK activity)
[14] = planktonic E. coli, 50 μM final drug concentration, 384-well, cutoff for positive-scoring molecules 3-fold increase, read-out: AK-based Prestwick Library Screening Results: E. coli (increase in extracellular AK activity)
[15] = 50 μM final drug concentration, planktonic, cutoff for positive-scoring molecules 3-fold increase
[16] = read-out: AK-based Prestwick Library Screening Results, E. coli (fold increase in extracellular AK activity)
[17] = planktonic E. coli, 50 μM final drug concentration, […], read-out: AK-based Prestwick library screening result, E. coli (fold increase in extracellular AK activity)
[18] = 50 μM final drug concentration, […]

For `CCCN1C[C@H](CSC)C[C@@H]2c3cccc4[nH]cc(c34)C[C@H]21` [Pergolide mesylate], the fold induction at 50 µM [1, 8] was 1, the fold induction at 50 µM [2, 9] was 1 and the fold induction at 50 µM [3, 10] was 0.8. It also gave a fold induction at 50 µM [4, 11] of 1.3, a fold induction at 50 µM [5, 12] of 1 and a fold induction at 50 µM [6, 13] of 1.4. For the same compound, the fold induction at 50 µM [7, 14] was 1.3.
In the case of `COCCc1ccc(OCC(O)CNC(C)C)cc1.COCCc1ccc(OCC(O)CNC(C)C)cc1.O=C(O)C(O)C(O)C(=O)O` (racemic) [Metoprolol-(+,−) (+)-tartrate salt], the “AK-based Prestwick Library Screening Results, E. faecium (fold increase in extracellular AK activity)” value [1, 15] is reported as 0.9, the “AK-based Prestwick Library Screening Results, S. aureus (fold increase in extracellular AK activity)” value [2, 15] is reported as 0.6 and the “AK-based Prestwick Library Screening Results, K. pneumoniae (fold increase in extracellular AK activity)” value [3, 15] is reported as 0.5. For the same compound, the “AK-based Prestwick Library Screening Results, A. baumannii (fold increase in extracellular AK activity)” value [4, 15] was 0.7, the “AK-based Prestwick Library Screening Results, P. aeruginosa (fold increase in extracellular AK activity)” value [5, 15] was 0.7 and the “AK-based Prestwick Library Screening Results, E. cloacae (fold increase in extracellular AK activity)” value [6, 15] was 7.0. The “AK-based Prestwick Library Screening Results, E. coli (fold increase in extracellular AK activity)” value [7, 15] was 0.6.
`NCCCCCC(=O)O` [Aminocaproic acid] was tested, and the fold induction at 50 µM ([1]; read-out: AK-based Prestwick Library Screening Results, E. faecium (fold increase in extracellular AK activity)) was 1.1, the fold induction at 50 µM ([2]; read-out: AK-based Prestwick Library Screening Results, S. aureus (fold increase in extracellular AK activity)) was 1.2 and the fold induction at 50 µM ([3]; read-out: AK-based Prestwick Library Screening Results, K. pneumoniae (fold increase in extracellular AK activity)) was 1.2. The fold induction at 50 µM ([4]; read-out: AK-based Prestwick Library Screening Results, A. baumannii (fold increase in extracellular AK activity)) was 1.3, the fold induction at 50 µM ([5]; read-out: AK-based Prestwick Library Screening Results, P. aeruginosa (fold increase in extracellular AK activity)) was 1.1 and the fold induction at 50 µM ([6]; read-out: AK-based Prestwick Library Screening Results, E. cloacae (fold increase in extracellular AK activity)) was 1.6. The fold induction at 50 µM [7, 16] was 1.2.
Compound `O=C1NCC2(CCN(CCc3ccccc3)CC2)O1` [Fenspiride hydrochloride] has a fold induction at 50 µM [1, 8] of 1, a fold induction at 50 µM [2, 9] of 1.1 and a fold induction at 50 µM [3, 10] of 1. It also gave a fold induction at 50 µM [4, 11] of 1.2, a fold induction at 50 µM [5, 12] of 1.1 and a fold induction at 50 µM [6, 13] of 1.6. For the same compound, the fold induction at 50 µM [7, 14] was 1.3.
With `CC(C)(C)C(=O)OCOC(=O)[C@@H]1N2C(=O)[C@@H](NC(=O)[C@H](N)c3ccccc3)[C@H]2SC1(C)C` [Pivampicillin] the fold induction at 50 µM ([1]; planktonic E. faecium, 50 μM final drug concentration, […], read-out: AK-based Prestwick library screening result, E. faecium (fold increase in extracellular AK activity)) was 1.1, the fold induction at 50 µM ([2]; planktonic S. aureus, 50 μM final drug concentration, […], read-out: AK-based Prestwick library screening result, S. aureus (fold increase in extracellular AK activity)) was 0.4 and the fold induction at 50 µM ([3]; planktonic K. pneumoniae, 50 μM final drug concentration, […], read-out: AK-based Prestwick library screening result, K. pneumoniae (fold increase in extracellular AK activity)) was 0.9. It also gave a fold induction at 50 µM ([4]; planktonic A. baumannii, 50 μM final drug concentration, […], read-out: AK-based Prestwick library screening result, A. baumannii (fold increase in extracellular AK activity)) of 1.8, a fold induction at 50 µM ([5]; planktonic P. aeruginosa, 50 μM final drug concentration, […], read-out: AK-based Prestwick library screening result, P. aeruginosa (fold increase in extracellular AK activity)) of 0.9 and a fold induction at 50 µM ([6]; planktonic E. cloacae, 50 μM final drug concentration, […], read-out: AK-based Prestwick library screening result, E. cloacae (fold increase in extracellular AK activity)) of 1.2. For the same compound, the fold induction at 50 µM [7, 17] was 1.5.
`N[C@@H](Cc1cc(I)c(Oc2ccc(O)c(I)c2)c(I)c1)C(=O)O` [Liothyronine] gave a fold induction at 50 µM ([1]; 50 μM final drug concentration, cutoff for positive-scoring molecules 3-fold increase, read-out: AK-based Prestwick Library Screening Results, E. faecium (fold increase in extracellular AK activity)) of 1.1, a fold induction at 50 µM ([2]; 50 μM final drug concentration, cutoff for positive-scoring molecules 3-fold increase, read-out: AK-based Prestwick Library Screening Results, S. aureus (fold increase in extracellular AK activity)) of 1 and a fold induction at 50 µM ([3]; 50 μM final drug concentration, cutoff for positive-scoring molecules 3-fold increase, read-out: AK-based Prestwick Library Screening Results, K. pneumoniae (fold increase in extracellular AK activity)) of 0.9. It also gave a fold induction at 50 µM ([4]; 50 μM final drug concentration, cutoff for positive-scoring molecules 3-fold increase, read-out: AK-based Prestwick Library Screening Results, A. baumannii (fold increase in extracellular AK activity)) of 1.1, a fold induction at 50 µM ([5]; 50 μM final drug concentration, cutoff for positive-scoring molecules 3-fold increase, read-out: AK-based Prestwick Library Screening Results, P. aeruginosa (fold increase in extracellular AK activity)) of 1.1 and a fold induction at 50 µM ([6]; 50 μM final drug concentration, cutoff for positive-scoring molecules 3-fold increase, read-out: AK-based Prestwick Library Screening Results, E. cloacae (fold increase in extracellular AK activity)) of 1.6. For the same compound, the fold induction at 50 µM [7, 16] was 1.2.
`COc1ccc(CC2c3cc(OC)c(OC)cc3CCN2C)cc1OC` (racemic) [Laudanosine (R,S)] was tested, and the “AK-based Prestwick Library Screening Results, E. faecium (increase in extracellular AK activity)” value ([1]; planktonic E. faecium, 50 μM final drug concentration, […]) was 0.9, the “AK-based Prestwick Library Screening Results, S. aureus (increase in extracellular AK activity)” value ([2]; planktonic S. aureus, 50 μM final drug concentration, […]) was 0.7 and the “AK-based Prestwick Library Screening Results, K. pneumoniae (increase in extracellular AK activity)” value ([3]; planktonic K. pneumoniae, 50 μM final drug concentration, […]) was 0.7. The “AK-based Prestwick Library Screening Results, A. baumannii (increase in extracellular AK activity)” value ([4]; planktonic A. baumannii, 50 μM final drug concentration, […]) was 0.9, the “AK-based Prestwick Library Screening Results, P. aeruginosa (increase in extracellular AK activity)” value ([5]; planktonic P. aeruginosa, 50 μM final drug concentration, […]) was 0.9 and the “AK-based Prestwick Library Screening Results, E. cloacae (increase in extracellular AK activity)” value ([6]; planktonic E. cloacae, 50 μM final drug concentration, […]) was 1.3. For the same compound, the “AK-based Prestwick Library Screening Results, E. coli (increase in extracellular AK activity)” value ([7]; planktonic E. coli, 50 μM final drug concentration, […]) was 1.0.
Work on `CC(C(=O)O)c1cccc(C(=O)c2ccccc2)c1` (stereo not shown) [Ketoprofen] yielded a fold induction at 50 µM ([1]; read-out: AK-based Prestwick Library Screening Results: E. faecium (increase in extracellular AK activity)) of 0.9, a fold induction at 50 µM ([2]; read-out: AK-based Prestwick Library Screening Results: S. aureus (increase in extracellular AK activity)) of 1 and a fold induction at 50 µM ([3]; read-out: AK-based Prestwick Library Screening Results: K. pneumoniae (increase in extracellular AK activity)) of 1.1. The fold induction at 50 µM ([4]; read-out: AK-based Prestwick Library Screening Results: A. baumannii (increase in extracellular AK activity)) was 1, the fold induction at 50 µM ([5]; read-out: AK-based Prestwick Library Screening Results: P. aeruginosa (increase in extracellular AK activity)) was 1 and the fold induction at 50 µM ([6]; read-out: AK-based Prestwick Library Screening Results: E. cloacae (increase in extracellular AK activity)) was 1.5. The fold induction at 50 µM ([7]; planktonic E. coli, 50 μM final drug concentration, 384-well, […], read-out: AK-based Prestwick Library Screening Results: E. coli (increase in extracellular AK activity)) was 1.1.
Work on `COc1cc(-c2ccc(=O)[nH]n2)ccc1OC(F)F` [Zardaverine] yielded a fold induction at 50 µM ([1]; planktonic E. faecium, 50 μM final drug concentration, positive cutoff 3-fold increase, read-out: AK-based Prestwick library screening result, E. faecium (fold increase in extracellular AK activity)) of 1, a fold induction at 50 µM ([2]; planktonic S. aureus, 50 μM final drug concentration, positive cutoff 3-fold increase, read-out: AK-based Prestwick library screening result, S. aureus (fold increase in extracellular AK activity)) of 0.6 and a fold induction at 50 µM ([3]; planktonic K. pneumoniae, 50 μM final drug concentration, positive cutoff 3-fold increase, read-out: AK-based Prestwick library screening result, K. pneumoniae (fold increase in extracellular AK activity)) of 0.7. It also gave a fold induction at 50 µM ([4]; planktonic A. baumannii, 50 μM final drug concentration, positive cutoff 3-fold increase, read-out: AK-based Prestwick library screening result, A. baumannii (fold increase in extracellular AK activity)) of 0.7, a fold induction at 50 µM ([5]; planktonic P. aeruginosa, 50 μM final drug concentration, positive cutoff 3-fold increase, read-out: AK-based Prestwick library screening result, P. aeruginosa (fold increase in extracellular AK activity)) of 0.7 and a fold induction at 50 µM ([6]; planktonic E. cloacae, 50 μM final drug concentration, positive cutoff 3-fold increase, read-out: AK-based Prestwick library screening result, E. cloacae (fold increase in extracellular AK activity)) of 0.9. It also gave a fold induction at 50 µM [7, 17] of 0.6.
For `O=[N+]([O-])c1cc([As](=O)(O)O)ccc1O` [Roxarsone], the “AK-based Prestwick Library Screening Results, E. faecium (fold increase in extracellular AK activity)” value [1, 18] was 0.8, the “AK-based Prestwick Library Screening Results, S. aureus (fold increase in extracellular AK activity)” value [2, 18] was 0.6 and the “AK-based Prestwick Library Screening Results, K. pneumoniae (fold increase in extracellular AK activity)” value [3, 18] was 0.4. The “AK-based Prestwick Library Screening Results, A. baumannii (fold increase in extracellular AK activity)” value [4, 18] was 0.5, the “AK-based Prestwick Library Screening Results, P. aeruginosa (fold increase in extracellular AK activity)” value [5, 18] was 0.5 and the “AK-based Prestwick Library Screening Results, E. cloacae (fold increase in extracellular AK activity)” value [6, 18] was 0.5. The “AK-based Prestwick Library Screening Results, E. coli (fold increase in extracellular AK activity)” value [7, 18] was 0.4.
